From patent publication US11834663B2, “Fibrotic treatment” (Monash University, priority 2015, dated 2023)
Marks after values point to notes of the source that are not given here.

Test system: cardiac cytokine protein levels
Experiment: Cardiac cytokine protein levels by Bio-Plex multiplex assay in aged WT mice
Assay type: in vivo, mouse
Description: There are 8 different sets of in vivo experiments in this study: • A) Phenotypic characterisation of the heart and blood vessels in global IRAP knockout mice and their WT controls treated for 4 weeks with Angiotensin (Ang) II (800 ng/kg/min; s.c.) where mouse hearts and blood vessels were compared to tissue obtained from young WT and IRAP^−/− mice treated with saline. • B) Prevention of Ang II-induced changes in the cardiovascular system following IRAP inhibitor treatment. In the prevention model, WT mice were treated with Ang II (800 ng/kg/min; s.c.)±the IRAP inhibitor (HFI-419; 500 ng/kg/min for 28 days) or HFI-vehicle (1 DMSO:3 HBC). • C) Phenotypic characterisation of the aged heart, kidney and blood vessels in the global IRAP knockout mice where aged WT and IRAP^−/− mouse hearts, kidneys and blood vessels were compared to tissue obtained from young WT and IRAP^−/− mice. • D) Reversal of the age-induced changes in the cardiovascular system following IRAP inhibitor treatment. In the reversal model, aged WT mice were treated with either saline, IRAP inhibitor (HFI-419 at 500 ng/kg/min; compound 1 at 500 ng/kg/min; compound 2 at 50 ng/kg/min) or HFI-vehicle (1 DMSO: 3 HBC) for 4 weeks. • E) Prevention of ischemic-reperfusion injury in isolated hearts taken from aged global IRAP knockout mice and aged IRAP inhibitor (HFI-419 at 500 ng/kg/min; s.c.) treated WT mice compared to age-matched vehicle-treated (1 DMSO:3 HBC; s.c.) WT controls. • F) Phenotypic characterization of cardiac function using echocardiography in the aged global IRAP knockout mice compared to aged and young WT mice. • G) Phenotypic characterization of liver steatosis in IRAP knockout mice in a high fat diet (HFD) model. • H) Reversal of the salt-induced fibrosis in the liver following IRAP inhibitor treatment.
The levels of cytokines in the heart ventricles and apex were detected by using the Bio-Plex multiplex assay (Bio-rad). Tissues were snap-frozen and homogenized with a Bio-Plex cell lysis kit (Biorad) according to the manufacturer's instructions. Briefly, tissues were washed once with 300 μl of wash buffer and homogenized in lysing solutions using Tissue Lyser (Qiagen). Samples were left on ice for 30 min and centrifuged at 6,000×g for 20 min at 4° C. Supernatant was collected and protein content was determined using Biorad protein assay (Biorad). 500 μg/ml of protein were used to detect the levels of cytokines. A panel of Bio-Plex Pro™ Mouse Cytokine Standard 23-Plex, Group I (IL-1α, IL-1β, IL-2, IL-3, IL-4, IL-5, IL-6, IL-9, IL-10, IL-12(p40), IL-12(p70), IL-13, IL-17A, Eotaxin, G-CSF, GM-CSF, IFN-γ, KC, MCP-1, MIP-1α, MIP-1β, RANTES, TNFα) was used, containing 23 different antibodies covalently coupled to the beads. 50 μl of sample (500 μg/ml) or known standard (200-900 μg/ml) was added to wells of a 96-well plate which was pre-coated with the diluted coupled beads specific for each antibody and incubated at RT with shaking at 300 RPM for 30 min in the dark. After washing away any unbound substances, biotinylated detection antibodies were added to create a sandwich complex and the plate was incubated for 30 min with shaking at 300 RPM in the dark at RT. Following three washes, the final detection complex was formed with the addition of streptavidin-phycoerythrin conjugate and incubated for 10 min in the dark at RT with shaking at 300 RPM. Following 3 washes with […], beads were resuspended in 125 μl of assay buffer. The samples were read using Bio-Plex MAGPIX Multiplex Reader (Bio-Plex Suspension System). Data were calculated by the Bio-Plex Manager software.

[1] = hearts of HFI-419-treated aged WT mice, mean ± s.e.m
[2] = relative ratio to mean of vehicle-treated aged WT

How did the “pro-inflammatory cytokines in heart” value (aged WT mice, HFI-419 4 weeks vs vehicle, FIG. 14, Table 1) turn out when `CCOC(=O)C1=C(NC(C)=O)Oc2cc(O)ccc2C1c1cccnc1` (centres unmarked) [HFI-419] was run?
Its value is “did not increase”.

What about the “anti-inflammatory cytokines in heart, including IL-4, IL-9 and IL-12p40” value (aged WT mice, HFI-419 4 weeks vs vehicle, Table 1) of the same compound?
The value was “marked increases”.

And the “CCL-3 (MIP-1a) cardiac protein level” value [1]?
Its value is 2.493 ± 0.35 pg/mL.

And the “CCL-4 (MIP-1b) cardiac protein level” value [1]?
Its value is 92.74 ± 10.92 pg/mL.

And the “CCL-5 (RANTES) cardiac protein level” value [1]?
Its value is 2.839 ± 0.21 pg/mL.

What about the “CCL-11 (Eotaxin) cardiac protein level” value [1] of the same compound?
The value was 140.3 ± 8.18 pg/mL.

What about the “CXCL-1 (KC) cardiac protein level” value [1] of the same compound?
The value was 6.859 ± 0.34 pg/mL.

And the “G-CSF cardiac protein level” value [1]?
Its value is 1.912 ± 0.08 pg/mL.

And the “GM-CSF cardiac protein level” value [1]?
The value was 38.18 ± 1.37 pg/mL.

What about the “IL-1a cardiac protein level” value [1] of the same compound?
Its value is 7.61 ± 0.56 pg/mL.

What about the “IL-1b cardiac protein level” value [1] of the same compound?
Its value is 69.83 ± 3.75 pg/mL.

And the “IL-4 cardiac protein level” value [1]?
Its value is 2.676 ± 0.06 pg/mL.

And the “IL-5 cardiac protein level” value [1]?
The value was 3.96 ± 0.14 pg/mL.

What about the “IL-6 cardiac protein level” value [1] of the same compound?
Its value is 2.766 ± 0.15 pg/mL.

And the “IL-9 cardiac protein level” value [1]?
The value was 557.8 ± 31.03 pg/mL.

What about the “IL-10 cardiac protein level” value [1] of the same compound?
The value was 40.13 ± 1.36 pg/mL.

And the “IL-12 p40 cardiac protein level” value [1]?
The value was 4.887 ± 0.28 pg/mL.

And the “IL-12 p70 cardiac protein level” value [1]?
Its value is 23.49 ± 1.83 pg/mL.

What about the “IL-13 cardiac protein level” value [1] of the same compound?
The value was 90.19 ± 2.93 pg/mL.

And the “IL-17A cardiac protein level” value [1]?
The value was 8.068 ± 0.29 pg/mL.

What about the “L-2 cardiac protein level” value [1] of the same compound?
Its value is 5.849 ± 0.78 pg/mL.

What about the “M-CSF (IL-3) cardiac protein level” value [1] of the same compound?
The value was 1.562 ± 0.11 pg/mL.

What about the “TNF-a cardiac protein level” value [1] of the same compound?
Its value is 219.7 ± 9.76 pg/mL.

And the “CCL-3 (MIP-1a) Ratio of HFI to Vehicle” value [2]?
The value was 0.88.

What about the “CCL-4 (MIP-1b) Ratio of HFI to Vehicle” value [2] of the same compound?
The value was 0.78.

What about the “CCL-5 (RANTES) Ratio of HFI to Vehicle” value [2] of the same compound?
Its value is 1.03.

And the “CCL-11 (Eotaxin) Ratio of HFI to Vehicle” value [2]?
Its value is 1.29.

What about the “CXCL-1 (KC) Ratio of HFI to Vehicle” value [2] of the same compound?
Its value is 1.18.

What about the “G-CSF Ratio of HFI to Vehicle” value [2] of the same compound?
Its value is 1.02.

And the “GM-CSF Ratio of HFI to Vehicle” value [2]?
The value was 0.99.

And the “IL-1a Ratio of HFI to Vehicle” value [2]?
The value was 1.03.

What about the “IL-1b Ratio of HFI to Vehicle” value [2] of the same compound?
The value was 1.16.

And the “IL-4 Ratio of HFI to Vehicle” value [2]?
Its value is 1.61**.

What about the “IL-5 Ratio of HFI to Vehicle” value [2] of the same compound?
The value was 0.98.

And the “IL-6 Ratio of HFI to Vehicle” value [2]?
The value was 0.98.

And the “IL-9 Ratio of HFI to Vehicle” value [2]?
The value was 1.19*.

What about the “IL-10 Ratio of HFI to Vehicle” value [2] of the same compound?
Its value is 1.09.

What about the “IL-12 p40 Ratio of HFI to Vehicle” value [2] of the same compound?
The value was 1.31.

What about the “IL-12 p70 Ratio of HFI to Vehicle” value [2] of the same compound?
The value was 0.88.

What about the “IL-13 Ratio of HFI to Vehicle” value [2] of the same compound?
Its value is 0.96.

And the “IL-17A Ratio of HFI to Vehicle” value [2]?
Its value is 0.95.

And the “L-2 Ratio of HFI to Vehicle” value [2]?
Its value is 1.12.

And the “M-CSF (IL-3) Ratio of HFI to Vehicle” value [2]?
Its value is 1.02.

What about the “TNF-a Ratio of HFI to Vehicle” value [2] of the same compound?
The value was 0.92.
